Laboratory results from ChEMBL document CHEMBL6153118, “Structure Optimization of Natural Product Catalpol to Obtain Novel and Potent Analogs against Heart Failure” (J Med Chem, 2025).
The source made the active and inactive calls. No cut-off for these calls is given here.

Columns and labels:
[1] = Metabolic stability in human liver microsomes assessed as half life measured for 5 to 60 mins in presence of NADPH by LC-MS/MS analysis; type: ADME, Microsome; conditions: time 5-60 min
Mus musculus [2] = test: Inhibition of cardiomyocyte hypertrophy in ISO-induced heart failure C57BL/6J mouse at 5 to 20 mg/kg/day, po for 14 days; type: functional, organism-based; conditions: dose 5-20 mg/kg/day, time 14.0 day
H9c2 [3] = test: Inhibition of cardiomyocyte hypertrophy in ISO-treated rat H9c2 cells at 50 uM preincubated for 12 hrs followed by ISO treatment for 36 hrs by FITC-Phalloidin staining based analysis; type: functional, cell-based; conditions: time 48.0 hrs
[4] = MRT (0 to t) in C57/6J mouse at 20 mg/kg, po measured for 24 hrs; type: ADME, organism-based; conditions: in vivo
H9c2 [5] = test: Cytoprotective activity against OGD-induced myocardial ischemic injury in rat H9c2 cells assessed as decrease in ROS level at 5 to 50 uM preincubated for 12 hrs followed by exposure to OGD condition for 3 hrs by DCFH-DA probe based analysis; type: functional, cell-based; conditions: dose 5-50 µM, time 15.0 hrs
Mus musculus [6] = test: Inhibition of cardiomyocyte hypertrophy in ISO-induced heart failure C57BL/6J mouse assessed as decrease in Bax level in heart tissue at 5 to 20 mg/kg/day, po for 14 days by Western blot analysis; type: functional, organism-based; conditions: dose 5-20 mg/kg/day, time 14.0 day
Mus musculus [7] = test: Improvement in motor ability in ISO-induced heart failure C57BL/6J mouse assessed as increase in time of remote motion with rotarod at 5 to 20 mg/kg/day, po for 14 days; type: functional, organism-based; conditions: dose 5-20 mg/kg/day, time 14.0 day
[8] = Metabolic stability in mouse liver microsomes assessed as half life measured for 5 to 60 mins in presence of NADPH by LC-MS/MS analysis; type: ADME, Microsome; conditions: time 5-60 min
CYP2D6 = CYP2D6 (Homo sapiens, UniProt P10635); test: Inhibition of CYP2D6 in human liver microsomes preincubated for 10 mins followed by NADPH addition measured after 10 mins by LC/MS/MS analysis relative to control; type: ADME, Microsome; conditions: time 20 min
[9] = Half life in C57/6J mouse at 5 mg/kg, iv measured for 24 hrs; type: ADME, organism-based; conditions: in vivo
[10] = Metabolic stability in human liver microsomes assessed as intrinsic clearance measured for 5 to 60 mins in presence of NADPH by LC-MS/MS analysis; type: ADME, Microsome; conditions: time 5-60 min, read-out: CLH
H9c2 [11] = test: Inhibition of apoptosis in ISO-treated rat H9c2 cells assessed as increase in Bcl-2 level by Western blot analysis; type: functional, cell-based; conditions: dose 5-50 µM
[12] = Cmax in C57/6J mouse at 20 mg/kg, po measured for 24 hrs; type: ADME, organism-based; conditions: in vivo
H9c2 [13] = test: Inhibition of apoptosis in ISO-treated rat H9c2 cells by Annexin V-FITC/PI staining based flow cytometry; type: functional, cell-based; conditions: dose 5-50 µM
Mus musculus [14] = test: Inhibition of cardiomyocyte hypertrophy in ISO-induced heart failure C57BL/6J mouse at 5 to 20 mg/kg/day, po for 14 days by WGA staining based analysis; type: functional, organism-based; conditions: dose 5-20 mg/kg/day, time 14.0 day
H9c2 [15] = test: Cytoprotective activity against OGD-induced myocardial ischemic injury in rat H9c2 cells assessed as decrease in LDH level at 5 to 50 uM preincubated for 12 hrs followed by exposure to OGD condition for 3 hrs by UV absorption analysis; type: functional, cell-based; conditions: dose 5-50 µM, time 15.0 hrs
Mus musculus [16] = test: Improvement in motor ability in ISO-induced heart failure C57BL/6J mouse assessed as increase in grip strength at 5 to 20 mg/kg/day, po for 14 days; type: functional, organism-based; conditions: dose 5-20 mg/kg/day, time 14.0 day
[17] = Tmax in C57/6J mouse at 20 mg/kg, po measured for 24 hrs; type: ADME, organism-based; conditions: in vivo
Mus musculus [18] = test: Inhibition of cardiomyocyte hypertrophy in ISO-induced heart failure C57BL/6J mouse assessed as increase in Bcl-2 level in heart tissue at 5 to 20 mg/kg/day, po for 14 days by Western blot analysis; type: functional, organism-based; conditions: dose 5-20 mg/kg/day, time 14.0 day
H9c2 [19] = test: Cytoprotective activity against OGD-induced myocardial ischemic injury in rat H9c2 cells assessed as cell viability at 5 uM preincubated for 12 hrs followed by exposure to OGD condition for 3 hrs by CCK8 assay (reference value: 49.23 to 50.05 %); type: functional; conditions: time 15 hrs, read-out: Activity
Mus musculus [20] = test: Inhibition of cardiomyocyte hypertrophy in ISO-induced heart failure C57BL/6J mouse assessed as decrease in GSK-3beta phosphorylation in heart tissue administered orally daily for 14 days by Western blot analysis; type: functional, organism-based; conditions: dose 5-20 mg/kg/day, route po, time 14.0 day
[21] = Toxicity in C57BL/6J mouse assessed as animal mortality at 400 mg/kg, po administered as single dose measured for 7 days; type: organism-based; conditions: in vivo, 168 h, time 7 day
Mus musculus [22] = test: Cardioprotective activity in ISO-induced heart failure C57BL/6J mouse assessed as ejection fraction in heart at 20 mg/kg/day, po for 14 days by echocardiography (reference value: 49.55 +/- 2.41 %); type: functional; conditions: time 14 day
CYP2C9 = CYP2C9 (Homo sapiens, UniProt P11712); test: Inhibition of CYP2C9 in human liver microsomes preincubated for 10 mins followed by NADPH addition measured after 10 mins by LC/MS/MS analysis relative to control; type: ADME, Microsome; conditions: time 20 min
Mus musculus [23] = test: Inhibition of cardiomyocyte hypertrophy in ISO-induced heart failure C57BL/6J mouse assessed as decrease in AKT phosphorylation in heart tissue administered orally daily for 14 days by Western blot analysis; type: functional, organism-based; conditions: dose 5-20 mg/kg/day, route po, time 14.0 day
Mus musculus [24] = test: Inhibition of cardiomyocyte hypertrophy in ISO-induced heart failure C57BL/6J mouse assessed as decrease in ANP level administered orally daily for 14 days by Western blot analysis; type: functional, organism-based; conditions: dose 5-20 mg/kg/day, route po, time 14.0 day
H9c2 [25] = test: Inhibition of apoptosis in ISO-treated rat H9c2 cells assessed as decrease in Bax level by Western blot analysis; type: functional, cell-based; conditions: dose 5-50 µM
Mus musculus [26] = test: Inhibition of cardiomyocyte hypertrophy in ISO-induced heart failure C57BL/6J mouse assessed as decrease in ratio of p-PI3K to PI3K levels in heart tissue administered orally daily for 14 days by Western blot analysis; type: functional, organism-based; conditions: dose 5-20 mg/kg/day, route po, time 14.0 day
H9c2 [27] = test: Inhibition of cardiomyocyte hypertrophy in rat H9c2 cells assessed as decrease in ISO-induced ANP level at 50 uM by Western blot analysis; type: functional, cell-based
CYP2C19 = CYP2C19 (Homo sapiens, UniProt P33261); test: Inhibition of CYP2C19 in human liver microsomes preincubated for 10 mins followed by NADPH addition measured after 10 mins by LC/MS/MS analysis relative to control; type: ADME, Microsome; conditions: time 20 min
H9c2 [28] = test: Cytoprotective activity against OGD-induced myocardial ischemic injury in rat H9c2 cells assessed as decrease in cell death at 5 to 50 uM preincubated for 12 hrs followed by exposure to OGD condition for 3 hrs by crystal violet staining based analysis; type: functional; conditions: dose 5-50 µM, time 15.0 hrs
Mus musculus [29] = test: Inhibition of cardiac fibrosis in ISO-induced heart failure C57BL/6J mouse at 5 to 20 mg/kg/day, po for 14 days; type: functional, organism-based; conditions: dose 5-20 mg/kg/day, time 14.0 day
[30] = Toxicity in C57BL/6J mouse assessed as signs of morbidity at 400 mg/kg, po administered as single dose measured for 7 days; type: organism-based; conditions: in vivo, 168 h, time 7 day
H9c2 [31] = test: Cytoprotective activity against OGD-induced myocardial ischemic injury in rat H9c2 cells assessed as cell viability at 50 uM preincubated for 12 hrs followed by exposure to OGD condition for 3 hrs by CCK8 assay (reference value: 49.23 to 50.05 %); type: functional; conditions: time 15 hrs, read-out: Activity
[32] = AUC (0 to t) in C57/6J mouse at 20 mg/kg, po measured for 24 hrs; type: ADME, organism-based; conditions: in vivo

Chain of CYP2D6 (P10635 whole entry): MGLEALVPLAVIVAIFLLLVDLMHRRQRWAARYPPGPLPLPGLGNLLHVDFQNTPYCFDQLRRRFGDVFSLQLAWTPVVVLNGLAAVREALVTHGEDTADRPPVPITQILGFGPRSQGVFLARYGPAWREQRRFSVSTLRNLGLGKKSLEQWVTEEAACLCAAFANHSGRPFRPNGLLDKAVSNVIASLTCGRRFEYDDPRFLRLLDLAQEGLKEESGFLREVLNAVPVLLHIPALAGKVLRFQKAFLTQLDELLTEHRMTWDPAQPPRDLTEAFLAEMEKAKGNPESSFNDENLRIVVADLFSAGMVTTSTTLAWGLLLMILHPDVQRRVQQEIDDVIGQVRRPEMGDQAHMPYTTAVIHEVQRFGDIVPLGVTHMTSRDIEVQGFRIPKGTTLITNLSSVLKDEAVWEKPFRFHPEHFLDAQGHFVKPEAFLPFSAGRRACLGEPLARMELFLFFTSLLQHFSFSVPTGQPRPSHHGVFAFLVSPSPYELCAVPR
Chain of CYP2C19 (P33261 whole entry): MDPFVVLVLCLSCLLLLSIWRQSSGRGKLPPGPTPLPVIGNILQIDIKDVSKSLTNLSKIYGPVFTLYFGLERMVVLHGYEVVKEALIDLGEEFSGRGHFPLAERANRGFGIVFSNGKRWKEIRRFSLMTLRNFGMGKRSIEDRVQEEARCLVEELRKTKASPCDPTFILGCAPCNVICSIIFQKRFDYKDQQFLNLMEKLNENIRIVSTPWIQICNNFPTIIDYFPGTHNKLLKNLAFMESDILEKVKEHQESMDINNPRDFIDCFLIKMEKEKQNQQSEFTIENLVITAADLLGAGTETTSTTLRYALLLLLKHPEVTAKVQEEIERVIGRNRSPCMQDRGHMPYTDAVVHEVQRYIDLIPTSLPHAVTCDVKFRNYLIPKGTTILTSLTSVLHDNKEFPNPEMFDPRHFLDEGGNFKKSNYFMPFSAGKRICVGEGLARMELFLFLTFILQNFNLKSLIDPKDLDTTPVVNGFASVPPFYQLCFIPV
Chain of CYP2C9 (P11712 whole entry): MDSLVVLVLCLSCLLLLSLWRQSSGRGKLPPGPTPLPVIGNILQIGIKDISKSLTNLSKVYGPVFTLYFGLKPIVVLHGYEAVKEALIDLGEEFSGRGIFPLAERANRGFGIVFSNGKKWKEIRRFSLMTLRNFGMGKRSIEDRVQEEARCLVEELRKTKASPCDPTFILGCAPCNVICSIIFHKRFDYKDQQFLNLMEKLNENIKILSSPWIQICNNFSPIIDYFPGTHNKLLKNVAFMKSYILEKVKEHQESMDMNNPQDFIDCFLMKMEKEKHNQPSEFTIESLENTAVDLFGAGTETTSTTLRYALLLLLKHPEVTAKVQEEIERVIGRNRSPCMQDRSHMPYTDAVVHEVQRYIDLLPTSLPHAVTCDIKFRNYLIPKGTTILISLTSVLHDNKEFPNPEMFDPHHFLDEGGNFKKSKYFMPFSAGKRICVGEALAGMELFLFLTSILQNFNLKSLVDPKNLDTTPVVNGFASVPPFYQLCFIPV

SMILES: OC[C@H]1O[C@@H](O[C@@H]2OC=C[C@H]3[C@H](O)[C@@H]4O[C@]4(COc4ccc(C(F)(F)F)cc4)[C@@H]23)[C@H](O)[C@@H](O)[C@@H]1O
- half-life [1]: > 2.42 h
- inhibition (Mus musculus [2]): Active; Exhibited Pronounced Therapeutic Effect Compared To Catal-Pol
- inhibition (H9c2 [3]): Active
- MRT last at 24 h [4]: 2.43 h
- Activity (H9c2 [5]): Active
- inhibition (Mus musculus [6]): Active
- Activity (Mus musculus [7]): Active
- half-life [8]: > 2.42 h
- inhibition at 10 min (CYP2D6): 4.3%
- half-life [9]: 0.95 h
- CLint scaled [10]: < 8.6 mL/min/kg
- inhibition (H9c2 [11]): Dose-dependent-effect
- Cmax [12]: 505 ng/mL
- inhibition (H9c2 [13]): Active; Exhibited Significantly Greater Decrease In Apoptotic Rate
- inhibition (Mus musculus [14]): Active
- Activity (H9c2 [15]): Active
- Activity (Mus musculus [16]): Active
- Tmax [17]: 1.42 h
- inhibition (Mus musculus [18]): Active
- viability at 5 µM (H9c2 [19]): 64.6%
- inhibition (Mus musculus [20]): Dose-dependent-effect
- Activity [21]: Non-toxic
- Activity (Mus musculus [22]): 58.46%
- inhibition at 10 min (CYP2C9): 6.3%
- inhibition (Mus musculus [23]): Dose-dependent-effect
- inhibition (Mus musculus [24]): Dose-dependent-effect; Restored Anp Level To Physiological Level
- inhibition (H9c2 [25]): Dose-dependent-effect
- inhibition (Mus musculus [26]): Dose-dependent-effect
- inhibition (H9c2 [27]): Active
- inhibition at 10 min (CYP2C19): 10.2%
- Activity (H9c2 [28]): Active; Exhibited Superior Protective Efficacy Than Catal-Pol
- inhibition (Mus musculus [29]): Active
- Activity [30]: Non-toxic
- viability at 50 µM (H9c2 [31]): 72%
- AUC(0-t) at 24 h [32]: 1820 ng·h/mL
